Source: patent publication US20240376126A1, “PRMT5 INHIBITOR AND THE USE THEREOF” (CYTOSINLAB THERAPEUTICS CO., LTD., priority 2022, published 2024)
Read-outs that look alike come from different tables or passages of the source.

Key:
HCT116 MTAP WT cells = assay: Proliferation inhibition of HCT116 cells in vitro (CellTiter Glo, 6 days); type: cell-based; details: Homo sapiens, HCT-116, 144 h, read-out: Cell proliferation inhibition rate HCT116 MTAP WT IC50 (nm)
Text: (§1) Biological Test Example 2 Proliferation Inhibition of HCT116 and HCT116 MTAP-KO Cells In Vitro
(§2) HCT116 cell line was purchased from the Chinese Academy of Sciences Cell Bank, and the MTAP gene was knocked out by CRISPR/Cas9 technology to obtain HCT116-MTAP-KO cell line.
(§3) McCoy's 5A medium (Gibco, catalog No. 16600082), fetal bovine serum (Gibco, catalog No. 10099141C), penicillin-streptomycin double antibody (Gibco, catalog No. 15140122), pancreatic enzyme (Gibco, catalog No. 25200056), CellTiter Glo assay kit (Promega, catalog No. G7572), 384-well transparent flat-bottomed black walled cell culture plate (Corning, catalog No. 3764), ultra micro sampler (Tecan, catalog No. D300e), Multimode reader (Biotek, catalog No. SynergyHTX)
(§4) • 1. Cell culture: HCT116 and HCT116-MTAP-KO cells were cultured in McCoy'5A medium+10% fetal bovine serum+1% penicillin-streptomycin double antibody; to ensure that they were always in the logarithmic growth phase and the cell viability greater than 95%. • 2. Compound concentration gradient preparation: The compound to be tested was added to a 384-well plate using an ultra micro sampler, starting from 30 μM (HCT116 cells) or 3 μM (HCT116-MTAP-KO cells), and diluted with DMSO at 3 times for a total of 9 concentrations and set up three duplicate wells. • 3. Treatment of cells with compounds: Trypsin-digested HCT116 or HCT116-MTAP-KO cell suspension was added to the 384-well plates spotted with the compounds to be tested at 40 μL per well, i.e., 100 cells per well, and the final concentration of DMSO was 0.4%. The cell culture plate was incubated at 37° C. in a 5% CO2 incubator for 6 days. • 4. Detection: 20 μL of CellTiter Glo reagent was added to each well of the cell culture plate and incubated at room temperature for 30 minutes. A multimode reader was used to detect the luminescence signal at […]. • 5. Data analysis:
(§5) The data was fitted with GraphPad Prism 8.0 software using a four parameter inhibitor-reaction model to obtain the […] (half inhibitory concentration) of the test compounds.
(§6) The first column represents cell proliferation inhibition rate HCT116 MTAP WT IC50 (nm), and the second column represents cell proliferation inhibition rate HCT116-MTAP null IC50 (nm): […]

[1] = system: HCT116-MTAP-KO (MTAP null) cells; assay: Proliferation inhibition of HCT116 MTAP-KO cells in vitro (CellTiter Glo, 6 days); type: cell-based; details: read-out: Cell proliferation inhibition rate HCT116-MTAP null IC50 (nm)
Text: as §1, §2, §3, §4, §5, §6

Structure (SMILES)	IC50 (HCT116 MTAP WT cells) [µM]	IC50 ([1]; HCT116-MTAP null, 144 h) [µM]	IC50 [1] [µM]
CC(C)CN(Cc1cn2cc(C(F)(F)F)ccc2n1)C(=O)c1ccc2nc(N)c3c(c2c1)COC3 [Example 3, 4-Amino-N-isobutyl-N—((6-(trifluoromethyl)imidazolo [1,2-a]pyridin-2-yl)methyl)-1,3-dihydrofurano [3,4-c] quinolin-8-carboxamide]	1 to 10	< 0.1	–
CC1OCc2c1c(N)nc1ccc(C(=O)N(Cc3cn4ccccc4n3)C(C)c3ncccn3)cc21 (stereo not drawn) [Example 5]	1 to 10	< 0.1	–
CCN(Cc1cn2ccccc2n1)C(=O)c1ccc2nc(N)c3c(c2c1)COC3 [Example 6]	1 to 10	< 0.1	–
CCN(Cc1cn2ccccc2n1)C(=O)c1ccc2nc(N)c3c(c2c1)COC3C (stereo not drawn) [Example 7]	1 to 10	< 0.1	–
Cc1cc2cc(C(=O)N(Cc3cn4ccccc4n3)C(C)c3ncccn3)ccc2nc1N (stereo not drawn) [Example 8]	1 to 10	< 0.1	–
Cn1ncc2c(N)nc3cc(F)c(C(=O)N(Cc4cn5ccccc5n4)C4COC4)cc3c21 [Example 9]	1 to 10	0.1 to 1	–
CCN(C(=O)c1cc2c(cc1F)nc(N)c1cnn(C)c12)C(C)c1cn2ccccc2n1 (stereo not drawn) [Example 10]	1 to 10	< 0.1	–
COCCN(Cc1cn2ccccc2n1)C(=O)c1cc2c(cc1F)nc(N)c1cnn(C)c12 [Example 11]	1 to 10	< 0.1	–
Cn1ncc2c(N)nc3cc(F)c(C(=O)N(Cc4cn5ccccc5n4)C45CC(C4)C5)cc3c21 [Example 12]	0.1 to 1	< 0.1	–
Cn1cc(N(Cc2cn3ccccc3n2)C(=O)c2cc3c(cc2F)nc(N)c2cnn(C)c23)cn1 [Example 14]	1 to 10	< 0.1	–
CCN(C(=O)c1ccc2nc(N)c3c(cnn3C)c2c1)C(C)c1cn2ccccc2n1 (stereo not drawn) [Example 15]	1 to 10	0.1 to 1	–
Cn1cc(N(Cc2cn3cc(C(F)(F)F)ccc3n2)C(=O)c2ccc3nc(N)c4cnn(C)c4c3c2)cn1 [Example 16]	1 to 10	0.1 to 1	–
CCN(Cc1cn2ccccc2n1)C(=O)c1ccc2nc(N)c3cnn(C)c3c2c1 [Example 18]	1 to 10	< 0.1	–
CC1COCC(c2cn3ccccc3n2)N1C(=O)c1cc2c(cc1F)nc(N)c1cnn(C)c12 (stereo not drawn) [Example 19]	0.1 to 1	< 0.1	–
CC(C)CN(Cc1cn2cc(C#N)ccc2n1)C(=O)c1cc2c(cc1F)nc(N)c1cnn(C)c12 [Example 20]	0.1 to 1	< 0.1	–
Cn1ncc2c(N)nc3cc(F)c(C(=O)N(Cc4cn5ccccc5n4)C4CCOC4)cc3c21 (stereo not drawn) [Example 22]	1 to 10	0.1 to 1	–
Cn1ncc2c(N)nc3cc(F)c(C(=O)N(Cc4cn5ccccc5n4)C4CCCC4O)cc3c21 (stereo not drawn) [Example 23]	1 to 10	< 0.1	–
Cn1ncc2c(N)nc3cc(F)c(C(=O)N(Cc4cn5ccccc5n4)C4CCCCC4O)cc3c21 (stereo not drawn) [Example 24]	1 to 10	< 0.1	–
CC1COCC(c2cn3ccccc3n2)N1C(=O)c1ccc2nc(N)c3c(cnn3C)c2c1 (stereo not drawn) [Example 25]	1 to 10	0.1 to 1	–
Cn1ncc2c(N)nc3cc(F)c(C(=O)N(Cc4cn5ccccc5n4)CC(F)F)cc3c21 [Example 26]	1 to 10	< 0.1	–
Cn1ncc2c(N)nc3cc(F)c(C(=O)N(Cc4cn5ccccc5n4)CC(C)(F)F)cc3c21 [Example 27]	1 to 10	< 0.1	–
CC(N(Cc1cn2ccccc2n1)C(=O)c1cc2c(cc1F)nc(N)c1cnn(C)c12)C(F)(F)F (stereo not drawn) [Example 28]	1 to 10	< 0.1	–
CCN(Cc1cn2ccccc2n1)C(=O)c1ccc2nc(N)c3c(cnn3C)c2c1 [Example 29]	1 to 10	0.1 to 1	–
CCN(Cc1nc2ccccn2c1C)C(=O)c1cc2c(cc1F)nc(N)c1cnn(C)c12 [Example 30]	1 to 10	< 0.1	–
CC(c1cn2ccccc2n1)N(C(=O)c1cc2c(cc1F)nc(N)c1cnn(C)c12)C12CC(C1)C2 (stereo not drawn) [Example 31]	1 to 10	< 0.1	–

Structure (SMILES)	IC50 (HCT116 MTAP WT cells) [µM]	IC50 ([1]; HCT116-MTAP null, 144 h) [µM]	IC50 [1] [µM]
Cc1cc2cc(C(=O)N(Cc3cn4ccccc4n3)C(C)c3cccc(F)n3)ccc2nc1N (stereo not drawn) [Example 32]	1 to 10	< 0.1	–
CCN(C(=O)c1ccc2nc(N)c3c(c2c1)COC3C)C(C)c1cn2ccccc2n1 (stereo not drawn) [Example 33]	1 to 10	0.1 to 1	–
CC(C)CN(Cc1cn2cc(C(F)(F)C(F)(F)F)ccc2n1)C(=O)c1cc2c(cc1F)nc(N)c1cnn(C)c12 [Example 34]	< 0.1	< 0.1	–
COCCOc1ccc2nc(CN(CC(C)C)C(=O)c3cc4c(cc3F)nc(N)c3cnn(C)c34)cn2c1 [Example 35]	1 to 10	< 0.1	–
CC(C)CN(Cc1cn2cc(C(F)(F)F)ccc2n1)C(=O)c1cc2c(cc1F)nc(N)c1cnn(C)c12 [Example 36]	0.1 to 1	< 0.1	–
[2H]C([2H])([2H])N(Cc1cn2ccccc2n1)C(=O)c1cc2c(cc1F)nc(N)c1cnn(C)c12 [Example 37]	1 to 10	< 0.1	–
Cc1cc2cc(C(=O)N(Cc3cn4ccccc4n3)C(C)c3ncccn3)c(F)cc2nc1N (stereo not drawn) [Example 38]	1 to 10	< 0.1	–
Cc1cc2cc(C(=O)N(Cc3cn4cc(C(F)(F)F)ccc4n3)C(C)c3ncccn3)c(F)cc2nc1N (stereo not drawn) [Example 39]	1 to 10	< 0.1	–
CCN(C(=O)c1cc2cc(C)c(N)nc2cc1F)C(C)c1cn2ccccc2n1 (stereo not drawn) [Example 40]	1 to 10	< 0.1	–
COCCN(Cc1cn2cc(C(F)(F)F)ccc2n1)C(=O)c1ccc2nc(N)c3c(c2c1)COC3C (stereo not drawn) [Example 41]	1 to 10	< 0.1	–
CC1OCc2c1c(N)nc1ccc(C(=O)N(Cc3cn4cc(C(F)(F)F)ccc4n3)c3cnn(C)c3)cc21 (stereo not drawn) [Example 42, 4-Amino-3-methyl-N-(1-methyl-1H-pyrazol-4-yl)-N-((6-(trifluoromethyl)imidazolo[1,2-a]pyridin-2-yl)methyl)-1,3-dihydrofurano[3,4-c]quinolin-8-carboxamide]	1 to 10	< 0.1	–
CC1OCc2c1c(N)nc1ccc(C(=O)N(Cc3cn4cc(C(F)(F)F)ccc4n3)C34CC(C3)C4)cc21 (stereo not drawn) [Example 43]	1 to 10	< 0.1	–
COCC(C)N(Cc1cn2cc(C(F)(F)F)ccc2n1)C(=O)c1ccc2nc(N)c3c(c2c1)COC3C (stereo not drawn) [Example 44]	1 to 10	< 0.1	–
COC1CC(N(Cc2cn3ccccc3n2)C(=O)c2cc3c(cc2F)nc(N)c2cnn(C)c23)C1 (stereo not drawn) [Example 45]	1 to 10	< 0.1	–
CCN(Cc1cn2ccccc2n1)C(=O)c1ccc2nc(N)c3c(c2c1)CO[C@H]3C [Example 47]	1 to 10	< 0.1	–
C[C@H]1OCc2c1c(N)nc1ccc(C(=O)N(Cc3cn4cc(C(F)(F)F)ccc4n3)c3cnn(C)c3)cc21 [Example 48]	1 to 10	1 to 10	–
C[C@@H]1OCc2c1c(N)nc1ccc(C(=O)N(Cc3cn4cc(C(F)(F)F)ccc4n3)c3cnn(C)c3)cc21 [Example 49]	1 to 10	< 0.1	–
[2H]C([2H])([2H])N(Cc1cn2cc(C(F)(F)F)ccc2n1)C(=O)c1ccc2nc(N)c3c(c2c1)COC3C (stereo not drawn) [Example 50]	1 to 10	0.1 to 1	< 0.1
CCN(Cc1cn2cc(C(F)(F)F)ccc2n1)C(=O)c1ccc2nc(N)c3c(c2c1)COC3C (stereo not drawn) [Example 51]	1 to 10	0.1 to 1	–
CC(C)CN(Cc1cn2cc(C(F)(F)F)ccc2n1)C(=O)c1ccc2nc(N)c3c(c2c1)COC3C (stereo not drawn) [Example 52]	1 to 10	< 0.1	–
CC(C)CN(Cc1cn2ccccc2n1)C(=O)c1ccc2nc(N)c3c(c2c1)COC3C (stereo not drawn) [Example 53]	1 to 10	< 0.1	–
CC(C)CN(Cc1cn2ccccc2n1)C(=O)c1ccc2nc(N)c3c(c2c1)CO[C@@H]3C [Example 54]	1 to 10	0.1 to 1	–
CC(C)CN(Cc1cn2ccccc2n1)C(=O)c1ccc2nc(N)c3c(c2c1)CO[C@H]3C [Example 55]	1 to 10	< 0.1	–
Cc1nn(C)cc1N(Cc1cn2cc(C(F)(F)F)ccc2n1)C(=O)c1cc2c(cc1F)nc(N)c1cnn(C)c12 [Example 238]	–	0.1 to 1	–
Cn1nccc1N(Cc1cn2cc(C(F)(F)F)ccc2n1)C(=O)c1cc2c(cc1F)nc(N)c1cnn(C)c12 [Example 240]	–	< 0.1	–
